From patent publication US20030186943A1, “Substituted gamma-phenyl-delta-lactams and uses related thereto” (Inflazyme Pharmaceuticals Ltd., priority 1998, published 2003)
Where “and” joins values, the source holds several entries; their conditions need not be identical. Equal values may be shown once.

Tests used:
[1] = tested on: IL-2 production in concanavalin A stimulated primary human CD4+ T-cells; experiment: IL-2 production (Th1 profile) in concanavalin A stimulated primary human CD4+ T-cells; format: cell-based
Source text: (§1) The assay on the primary human T-cells involves their activation by concanavalin A (conA); (Sigma, Catalogue No. C 5275), followed by ELISA detection for cytokines for either profile. In the case of Th1-profiles, IL-2 and INF-γ are used as benchmarks while IL-10 is the indicator for a Th2-profile. Biologically, these indicators are useful in that IL-2 is the major T-cell mitogen while IL-10 represents a powerful yet selective immunosuppressive agent.
(§2) Approximately 60 cc of whole human blood was collected into ACD anti-coagulant vacutainer tubes. 15 mL Ficoll Paque 1077 was aliquoted into 6 sterile 50 mL conical tubes. 10 mL of blood was slowly layered on top of the Ficoll Paque by holding the tube upright and resting the pipette tip at the inside edge of the tube and allowing the blood to slowly run down the side of the tube. Tubes were spun at 1700 rpm for 30 minutes at room temperature. The plasma layer above the leukocyte band was aspirated off and a pasteur pipette was used to lift off the leukocyte band and transfer it to a sterile 50 mL conical tube. Cells from each leukocyte gradiant tube were transferred to a separate 50 mL conical tube. Sterile PBS pH 7.4 was added to each 50 mL conical tube containing cells from leukocyte band to a volume of 50 mL. Tubes were spun at 1100 rpm for 10 minutes. Supernatant was aspirated off and the cells were resuspended in 50 mL PBS pH 7.4. Tubes were re-centrifuged at 1100 rpm for 10 minutes. Supernatant was aspirated off and the cells were resuspended in appropriate medium at a density of 5×10^7 cells/mL or 2×10^6 cells/mL.
(§3) CD 4+T-cell Preparation: Cells from Leukocyte preparation were resuspended in sterile PBS pH 7.4 supplemented with 2-6% Fetal Bovine Serum (FBS) at a density of 5×10^7 cells/mL. Cells were then ready for isolation.
(§4) 100 μL of antibody cocktail (Stem Cell Technologies, Catalogue No. 14062) was added for each mL of cells and mixed well. Cells+Ab cocktail was incubated on ice for 30 minutes. After 30 minute incubation, 60 μL of magnetic colloid was added for each mL of cells, and mixed well. Cells+Ab cocktail+magnetic colloid were incubated on ice for 30 minutes. After a final 30 minute incubation cells were ready for magnetic cell separation.
(§5) Sample was loaded into the top of a column. The stopcock was turned to allow the flow of media down through the column, and the media was collected into a collection tube. PBS supplemented with 2-6% FBS was added to the column until three column volumes had been collected (not including the volume of the start sample). Cells were washed, counted, and resuspended in RPMI 1640 with 10% FBS+2 mM L-glutamine at a density of 1×10^6 cells/mL.
(§6) CD4+ T-cells were isolated as described above. Cells were suspended in RPMI 1640 media (Stem Cell Technologies Inc.; Catalogue No. 36750) with 10% FBS+2 mM L-glutamine at a density of 1×10^6 cells/mL. Cells were maintained on ice as test compounds were prepared. Test compounds were prepared in a sterile 96-well assay plate at 50×the final desired test concentration, all wells contained an equal amount of dimethylsulfoxide vehicle. 500 μL of CD4^+ T-cells were added to each well of 24-well assay plate. 10 μL of each test compound working solution was added to the appropriate wells; two wells were left as stimulated and non-stimulated controls. 10 μL of concanavalin A (50×the final concentration) at 10 μg/mL was added to each well with the exception of the non-stimulated control wells. Cells were incubated at 37° C. for 48 hours. Conditioned media is then assessed by ELISA for the quantity of IL-2, […], TNFα and IL-10 present.
(§7) Tables 5A, 5B and 5C represent a synopsis of data across individuals with respects to the potency of compounds of the invention in their ability to inhibit cytokines that are likely to promote or depress a Th1 or Th2 response. […]

[2] = tested on: High Affinity Rolipram Binding Site of PDE4 in Mouse Brain; experiment: Displacement of [3H]-rolipram from its high affinity binding site (HARBS); conditions: ratio of IC50 for PDE4 catalytic activity to concentration displacing 50% of rolipram from HARBS
CD8+ T-cells = experiment: CD8+ T-cell proliferation (2C-TCR transgenic); format: cell-based, mouse; conditions: at 5 μM
Source text: 2C-TCR transgenic mice (Sha W. C. et al., Nature 335:271-274, 1988) were used to provide a source of naive antigen specific CD8+T cells. The 2C-T cell antigen receptor recognizes the 2C peptide derived from the mitochondrial alpha-ketoglutarate dehydrogenase enzyme in the context of the Db class I MHC molecule.
To test the efficacy of a test compound in naive CD8+ T cell activation and proliferation, single cell suspensions of 2C lymph node (LN) T cells were isolated from 2C-TCR transgenic mice. 2C-T cells were stimulated with irradiated TAP−/− H-2d splenocytes or L^d transfected TAP−/− T2 cell line in the presence of varying concentrations of 2C peptide (0-10 uM). Proliferation was assessed by ^3H thymidine incorporation. Cell surface activation phenotype of T cells was performed by flow cytometric analysis

Th1 cells = experiment: Proliferation of differentiated Th1 CD4+ T cells; format: cell-based, mouse; conditions: CD4+ T cells already differentiated into Th1 phenotype
Description: The differentiation of naive CD4 T cells toward Th1 and Th2 lineages was performed as follows: 1×10^5 AND-lymph node T cells were cultured with […] B10.BR irradiated spleen cells in 2 ml of culture media with the following supplements: for Th1 cell differentiation, 100 U/mL IFNγ, 25U/mL IL2 and 10 ug/mL anti-IL4; for Th2 cell differentiation, 150 U/mL IL4, 25 U/mL IL2 and 10 ug/mL anti-IFNγ. After 3-4 days the wells were split 1:4 with the same additions. After 7 days the cells were harvested and washed 3 times to remove cytokines in the supernatents. 1×10^5 cultured cells were restimulated with 5×10^5 irradiated B10BR spleen cells +5 μM pcc peptide in 250 μl culture media without any added cytokines. The supernatents were harvested after 40 hrs and assessed for IL2, IL4 and IFNγ by ELISA. Test compounds were added throughout the differentiation of the culture.
Cultured Th1 and Th2 cells generated in the absence of test compounds were tested for proliferation and cytokine activity as described above during antigen stimulation in the presence of compound.

[3] = tested on: tail skin allograft rejection (C57BL/6 donor, BALB/c recipient mice); experiment: Murine tail skin allograft transplantation model; format: in vivo, mouse; conditions: 10 mg/kg i.p. twice daily
Description: Tail skin from donor H-2 b C57BL/6 mice was transplanted onto recipient female H-2^d BALB/c mice (Lagodzinski, Z. et al., Immunology 71:148-150 (1990)). Five mice were included per group. […] Test compounds and CsA were administered twice daily intraperitoneally at a dose of 10 mg/kg beginning at one day prior to transplantation and for 15 days after transplantation, including the day of transplantation. Mice were monitored and scored daily over 15 days post transplantation for graft rejection.
Skin allograft rejection is primarily mediated by T lymphocytes with little evidence for a major role of antibodies under most circumstances. Skin allograft rejection requires the activation of helper and cytotoxic effector T cell populations. Graft rejection was assessed by monitoring allograft necrosis. Because tail skin is visibly distinct from the surrounding trunk skin of the mouse, the course of rejection can be easily monitored. Fully intact grafts were scored as 100%. Complete graft rejection was defined as >90% graft necrosis. Acute graft rejection generally proceeds via a series of visually obvious events beginning with swelling and erythema of the graft. These events are followed by graft desiccation and scab formation over most or all of the graft, signaling the loss of the viable graft tissue. Scab formation is subsequently followed by shrinkage and scar formation.

[4] = tested on: TNBS-induced colitis in the rat; conditions: dose reduced to 50 mg/kg; cited from earlier work
[5] = tested on: TNBS-induced colitis in the rat; experiment: TNBS-induced colitis model of inflammatory bowel disease in the rat;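 further: rat colitis induced by intracolonic TNBS in 50% ethanol, distal colon assessed at sacrifice on day 7, with saline-instilled vehicle-treated rats as controls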
Description: Colitis was induced by intracolonic instillation of the hapten TNBS (60 mg/mL) in 0.5 mL of 50% ethanol. […] An additional group of rats received saline intracolonically in place of TNBS/ethanol and was treated with vehicle at the same times as outlined above. Body weights were recorded at the beginning of the study and at days 2 and 7.
The rats were sacrificed on the 7th day after the induction of colitis and the extent of damage and inflammation was assessed. After the rats were sacrificed, the distal colon was removed and pinned out on a wax platform. The presence or absence of diarrhea was noted, as well as the presence and severity of adhesions between the colon and other organs, and the severity and extent of colonic damage. […] After scoring, a sample of colonic tissue was excised for measurement of myeloperoxidase activity as an index of granulocyte infiltration (see Wallace et al., Gastroenterology 117: in press, 1999; and Morris et al., Gastroenterology 96:795-803, 1989). This tissue sample was 1 cm long (along the axis of the colon) and 5 mm wide and was taken from a region of macroscopically visible damage (or the corresponding region in any rats in which there was no damage). The remainder of the tissue was fixed in neutral buffered formalin and processed by routine methods for subsequent evaluation by light microscopy. In a blinded manner, the sample of colonic tissue from each rat was examined for evidence of mucosal ulceration and inflammation. The percentage of the luminal surface of the section in which ulceration was present was calculated.

[6] = tested on: High Affinity Rolipram Binding Site of PDE4 in Mouse Brain; conditions: values reported for second-generation PDE4 inhibitors; cited from earlier work
[7] = tested on: TNF-α production in concanavalin-A stimulated primary human CD4+ T-lymphocytes; experiment: TNF-α production in Con-A stimulated human CD4+ T-cells (ELISA); format: cell-based; conditions: T-lymphocyte, X marks this range, read-out: TNF-alpha IC50 RANGE (μM) <2
Description: Activated T-lymphocytes are known to produce TNF-α and may constitute a significant source of this important inflammatory mediator in localized regions of inflammation such as the rheumatoid synovium or psoriatic lesions. Supernatants from cona-stimulated primary human CD4+ T-cells that had been incubated in the presence or absence of a test compound were analyzed for TNF-α using an ELISA system. (Pharingen; recommended anti-TNF antibody set 18631-D and 18642-D). Substantial quantities of TNF-α were induced in vehicle treated T-cells stimulated with conA. […] This may be due to the differing sensitivity of monocyte/macrophages versus T-lymphocytes to elevations in intracellular cAMP with respect to regulatory pathways impacting TNF-α production.
as §2, §3, §4, §5, §6

[8] = tested on: IFN-gamma production in concanavalin A stimulated primary human CD4+ T-cells; experiment: IFN-gamma production (Th1 profile) in concanavalin A stimulated primary human CD4+ T-cells; format: cell-based; conditions: T-cell, 10 μg/mL Concanavalin A, 48 hours, X marks this range, read-out: INF-GAMMA IC50 RANGE (μM) 0.2-2.0
Source text: as §1, §2, §3, §4, §5, §6, §7

[9] = tested on: IL-10 production in concanavalin A stimulated primary human CD4+ T-cells; experiment: IL-10 production (Th2 profile) in concanavalin A stimulated primary human CD4+ T-cells; format: cell-based; conditions: T-cell, 10 μg/mL Concanavalin A, 48 hours, X marks this range, read-out: IL-10 IC50 RANGE (μM) 0.02-0.2
Source text: as §1, §2, §3, §4, §5, §6, §7

[10] = tested on: K562 chronic myelogenous leukemia cells; experiment: Anti-proliferative activity in K562 cells (3H-thymidine uptake); format: cell-based, human; conditions: Homo sapiens; K562, 48 hours, 3H-thymidine; X marks this range; read-out: IC50 range (μM) >50
Description: 90 μL K562 cells (human chronic myelogenous leukemia cells) were seeded into sterile 96-well assay plates at a density of 1×10^5 cells/mL in RPMI 1640 supplemented with 10% FBS/2 mM L-glutamine. Samples to be tested were prepared in a sterile 96-well assay plate at 10×the final concentration desired. All sample dilutions contained equal amounts of DMSO to compensate for the % DMSO in the highest sample concentration used. Nine concentrations of test compound were examined for effects on growth up to a maximal concentration of 100 μM. 10 μL of the samples and controls (DMSO/normal growth control) were added to the aliquoted cells. The cells were incubated at 37° C./5% CO2 for 48 hours. Following 48 hour incubation, 20 μL of 3H-thymidine was added to each well for a final concentration of 1 μCi/mL. The cells were then incubated at 37° C./5% CO2 for 4 to 6 hours. Following 4-6 hour thymidine pulse, plates were wrapped in plastic and frozen in a −20° C. frost-free freezer overnight. Cells were harvested and ^3H-thymidine counts determined. In order to distinguish between cytotoxicity and cytostatic activity, growth curves were prepared where the average CPM value of the seeding density of cells was plotted on the same curve as the average CPM value for the maximum proliferation attained after 48 hours (DMSO growth control cells). The cells were diluted 1:2 for a concentration range of 7.8×10^3 cells/mL to 2×10^6 cells/mL. 90 μL of each cell dilution was seeded in sterile 96-well assay plated and allowed to equilibrate for approximately 4 hours at 37° C./5% CO2 prior to ^3H-thymidine pulse. The data in Table 15 was obtained as described above, and more specifically, K562 cells were seeded into 96-well plates at 1×10^5 cells/mL in RPMI 1640 supplemented with 10% FBS/2 mM L-glutamine. Various concentrations of test compound or vehicle (DMSO) was added and the cells were incubated at 37° C./5 CO2 for 48 hours. The cells were then pulsed at 37° C./5% CO2 for 4 to 6 hours with 1 μCi/mL ^3H-thymidine. Radioactivity incorporated into DNA was determined after harvesting onto glass fiber filters and scintillation counting.

[11] = 100 mg/kg intracolonically at 12 h intervals for one week
[12] = 100 mg/kg intracolonically at 12 h intervals for one week, day 7

COc1ccc([C@H]2COC(=O)C(Cc3ccc(OC4CCCC4)c(OC)c3)C2)cc1OC (some centres unmarked) [Compound 136]
Th1 versus Th2 cytokine profile ([1]; conA stimulated CD4+ selected cells): selective inhibition of a Th1 profile | PDE4:HARBS [2]: <1 | inhibition of CD8+ T-cell proliferation (CD8+ T-cells): approx. 40% | inhibition of Th1 cells (Th1 cells): approx. 30% | Average graft survival ([3]; from one day prior to and for 15 days after transplantation): 15.4 days and 15.4 ± 1.3 days | Allograft survival rate (% at 9 days post-transplant) ([3]; 9 days post-transplant): 100% | # grafts surviving beyond 16 days p.t. ([3]; five mice per group): 3

Nc1ccc(O)c(C(=O)OCCCCO[N+](=O)[O-])c1 [NCX-456]
therapeutic effects in TNBS model at reduced dose [4]: lost | Body Weight Change (%) [5, 11]: −5.7 ± 0.3% | Mortality [5, 11]: 1/8 | Adhesion (Incidence) [5, 12]: (2/7)^ζ | Adhesion Score [5, 12]: 0.4 ± 0.3 | Bowel Thickness (mm) [5, 12]: 2.02 ± 0.42 mm | Damage Score [5, 12]: 3.7 ± 0.9 | Global Colitis Score [5, 12]: 6.60 ± 1.67 | reduction in the colonic damage score ([5]; 100 mg/kg, one week): 50% | MPO Activity (U/mg) ([5]; colonic tissue, 100 mg/kg intracolonically at 12 h intervals for one week, day 7): 57.8 ± 11.6 U/mg | Diarrhea ([5]; incidence, 100 mg/kg intracolonically at 12 h intervals for one week, day 7): 3/7 | Histology Score ([5]; percentage of luminal surface ulcerated, 100 mg/kg intracolonically for one week, day 7): 46.4 ± 4.1

COc1ccc(C(=O)Nc2c(Cl)cncc2Cl)cc1OC1CCCC1 [RP 73401]
ratio of IC50's for PDE4catalytic to PDE4HARBS (reported) [6]: 3

COc1ccc([C@]2(C#N)CC[C@@H](C(=O)O)CC2)cc1OC1CCCC1 [SB 207499]
ratio of IC50's for PDE4catalytic to PDE4HARBS (reported) [6]: 1

COc1cc(-c2ccc(=O)[nH]n2)ccc1OC(F)F [Zardaverine, reference compound]
IC50 [7]: < 2 µM | IC50 ([1]; Homo sapiens, T-cell, 10 μg/mL Concanavalin A, 48 hours, X marks this range, read-out: IL-2 IC50 RANGE (μM) 0.2-2.0): 0.2 to 2 µM | IC50 [8]: 0.2 to 2 µM | IC50 [9]: 0.02 to 0.2 µM | IC50 [10]: > 50 µM
